Each compound was assayed against MAPK14 (human) (UniProt Q16539) (assay: Inhibition of MAPK14 Kinase Activity).
Chain of MAPK14 (human) (Q16539 whole entry, looked up): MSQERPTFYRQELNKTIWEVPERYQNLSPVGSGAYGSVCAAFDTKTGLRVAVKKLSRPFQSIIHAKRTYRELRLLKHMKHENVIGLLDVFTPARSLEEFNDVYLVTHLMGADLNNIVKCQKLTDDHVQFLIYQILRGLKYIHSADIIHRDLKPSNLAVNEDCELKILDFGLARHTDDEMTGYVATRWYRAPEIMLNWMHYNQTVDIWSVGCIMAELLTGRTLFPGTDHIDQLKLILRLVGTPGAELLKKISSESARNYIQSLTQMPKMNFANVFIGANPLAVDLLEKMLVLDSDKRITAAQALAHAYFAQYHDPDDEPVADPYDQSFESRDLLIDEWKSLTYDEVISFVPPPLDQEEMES

Q: Which IC50 does the source give for Nc1nc2ccc(-c3[nH]c(-c4c(F)cccc4F)nc3-c3ccccc3)cc2n1CC1CC1 here?
A: Its IC50 is no more than 5 µM.

Q: For CC(C)Cn1c(N)nc2ccc(-c3cn[nH]c3-c3ccc(F)cc3)cc21, which IC50 is on record?
A: Its IC50 is no more than 5 µM.

Q: How did the IC50 turn out when CCC(CC)n1c(N)nc2ccc(-c3[nH]c(-c4c(F)cccc4F)nc3-c3ccccc3)cc21 was run?
A: The IC50 was no more than 5 µM.

Q: With Nc1nc2ccc(-c3[nH]c(-c4c(F)cccc4F)nc3-c3ccccc3)cc2n1C1CCCC1 as the compound, how does the IC50 read?
A: The IC50 was no more than 5 µM.

Q: How did the IC50 turn out when CC(C)n1c(N)nc2ccc(-c3n[nH]nc3-c3ccccc3)cc21 was run?
A: The IC50 was no more than 5 µM.

Q: For CC(C)Cn1c(N)nc2ccc(-c3[nH]c(-c4ccc(Cl)cc4)nc3-c3ccc(F)cc3)cc21, which IC50 is on record?
A: The IC50 was no more than 5 µM.

Q: c1ccc(-c2nc(-c3ccc(OCCN4CCCCC4)cc3)[nH]c2-c2ccc3ncn(CC4CC4)c3c2)cc1 was tested. Which IC50 did it give?
A: Its IC50 is no more than 5 µM.

Q: For CC(C)Cn1c(N)nc2ccc(-c3cn(C(C)C)nc3-c3ccccc3)cc21, which IC50 is on record?
A: The IC50 was no more than 5 µM.

Q: Which IC50 does the source give for CC(C)Cn1c(N)nc2ccc(-c3c(-c4ccccc4)nc(-c4ccc(Cl)cc4)n3C)cc21 here?
A: Its IC50 is no more than 5 µM.

Q: Nc1nc2ccc(-c3[nH]c(-c4c(F)cccc4F)nc3-c3ccccc3)cc2n1CC1CCCCC1 was tested. Which IC50 did it give?
A: The IC50 was no more than 5 µM.

Q: Which IC50 does the source give for CC(C)Cn1c(N)nc2ccc(-c3cn(-c4ccccc4F)nc3-c3ccccc3)cc21 here?
A: The IC50 was no more than 5 µM.

Q: With Nc1nc2ccc(-c3nc(C4CC4)[nH]c3-c3ccc(F)cc3F)cc2n1CC1CC1 as the compound, how does the IC50 read?
A: The IC50 was no more than 5 µM.

Q: For CC(C)Cn1c(N)nc2ccc(-c3c[nH]nc3-c3ccccc3)cc21, which IC50 is on record?
A: The IC50 was no more than 5 µM.

Q: Which IC50 does the source give for Nc1nc2ccc(-c3nc(-c4c(F)cccc4C(F)(F)F)[nH]c3-c3ccccc3)cc2n1CC1CC1 here?
A: The IC50 was no more than 5 µM.

Q: Fc1cccc(F)c1-c1nc(-c2ccccc2)c(-c2ccc3ncn(CC4CC4)c3c2)[nH]1 was tested. Which IC50 did it give?
A: Its IC50 is no more than 5 µM.

Q: For CC(C)(C)Cn1c(N)nc2ccc(-c3[nH]c(-c4c(F)cccc4F)nc3-c3ccccc3)cc21, which IC50 is on record?
A: The IC50 was no more than 5 µM.

Q: How did the IC50 turn out when CC(C)Cn1c(N)nc2cc(-c3[nH]c(-c4c(F)cccc4Cl)nc3-c3ccccc3)ccc21 was run?
A: Its IC50 is no more than 5 µM.

Q: With CC(C)(C)Cn1c(N)nc2ccc(-c3[nH]c(C(C)(C)C)nc3-c3ccccc3)cc21 as the compound, how does the IC50 read?
A: The IC50 was no more than 5 µM.

Q: Which IC50 does the source give for CC(C)Cn1c(N)nc2ccc(-c3[nH]c(C(F)(F)F)nc3-c3ccccc3)cc21 here?
A: Its IC50 is no more than 5 µM.

Q: For Cc1onc(-c2ccccc2)c1-c1ccc2nc(N)n(S(=O)(=O)C(C)C)c2c1, which IC50 is on record?
A: Its IC50 is no more than 5 µM.

Q: Which IC50 does the source give for CCn1c(N)nc2ccc(-c3[nH]c(-c4c(F)cccc4F)nc3-c3ccccc3)cc21 here?
A: The IC50 was no more than 5 µM.

Source: the Kinase Knowledgebase extract (Sharma et al. 2016)
